Active and inactive are the calls of the source.
Columns and labels:
Aminopeptidase N = molecular target: T1, Aminopeptidase N (Plasmodium falciparum FcB1/Columbia, UniProt O96935); experiment: malaria alanyl aminopeptidase activity blockers – biochemical, fluorogenic H-Leu-NHMec substrate, 1536-well (AID 1445); set-up: species or system Plasmodium falciparum 3D7, 3D7
T1 sequence (O96935 whole entry): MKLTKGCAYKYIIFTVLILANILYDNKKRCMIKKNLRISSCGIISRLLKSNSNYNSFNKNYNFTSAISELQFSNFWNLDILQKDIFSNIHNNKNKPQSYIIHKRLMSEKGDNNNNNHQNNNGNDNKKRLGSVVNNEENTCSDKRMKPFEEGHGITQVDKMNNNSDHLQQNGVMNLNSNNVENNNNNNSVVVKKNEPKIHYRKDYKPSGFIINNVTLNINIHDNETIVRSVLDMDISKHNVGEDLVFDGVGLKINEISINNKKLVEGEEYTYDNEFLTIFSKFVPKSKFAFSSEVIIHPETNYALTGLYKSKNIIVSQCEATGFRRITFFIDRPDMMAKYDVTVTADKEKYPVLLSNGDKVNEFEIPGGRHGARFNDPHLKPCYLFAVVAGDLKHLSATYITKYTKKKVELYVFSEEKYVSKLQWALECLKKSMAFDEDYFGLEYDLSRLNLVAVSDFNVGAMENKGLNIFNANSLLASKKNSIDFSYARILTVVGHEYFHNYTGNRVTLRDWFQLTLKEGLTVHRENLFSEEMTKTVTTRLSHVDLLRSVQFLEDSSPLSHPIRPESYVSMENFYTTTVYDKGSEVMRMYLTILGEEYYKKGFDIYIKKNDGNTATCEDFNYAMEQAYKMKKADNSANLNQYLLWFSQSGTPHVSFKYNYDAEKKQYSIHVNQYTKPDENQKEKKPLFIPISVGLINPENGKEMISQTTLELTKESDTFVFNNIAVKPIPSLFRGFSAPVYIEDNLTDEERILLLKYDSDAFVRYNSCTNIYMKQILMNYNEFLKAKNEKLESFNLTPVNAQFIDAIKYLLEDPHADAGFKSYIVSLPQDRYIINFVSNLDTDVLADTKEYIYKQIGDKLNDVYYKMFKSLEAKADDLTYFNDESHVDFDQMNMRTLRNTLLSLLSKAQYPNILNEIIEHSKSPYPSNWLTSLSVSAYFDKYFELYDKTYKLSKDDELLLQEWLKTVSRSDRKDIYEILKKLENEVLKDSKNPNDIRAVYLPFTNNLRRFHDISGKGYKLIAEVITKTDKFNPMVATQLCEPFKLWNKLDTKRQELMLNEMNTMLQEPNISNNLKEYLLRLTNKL

Streptococcus = experiment: GAS UMAA2166 growth inhibition – luminescence, BacTiterGlo, counter-screen for streptokinase expression inhibitor project, dose response (AID 1915); format: functional, organism-based;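 note: potency for reduction of bacterial viability or growth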
[1] = system: Streptococcus sp. 'group A'; experiment: Streptococcus pyogenes SK(-)GAS viability under kanamycin – luminescence, BacTiterGlo, confirmation, counter-screen for streptokinase expression inhibitor project, dose response (AID 1900); format: functional, organism-based
[2] = non-specific 3'UTR reporter inhibition in Clone20-Shn3RL – cell-based, Renilla luciferase, cherry-picked, counter-screen for Shn3 inhibitor project, dose response (AID 624133); format: functional
[3] = loss of viability in HepG2 cells – cell-based, CellTiter-Glo, cherry-picked, cytotoxicity control for Shn3 inhibitor project, dose response (AID 624134); format: functional
[4] = reduction of Shn3 3'UTR-driven luciferase in osteoblasts – cell-based, Clone20 osteoblasts, firefly luciferase, cherry-picked, dose response (AID 624132); format: functional;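 note: firefly luciferase luminescence from reporter carrying the Shn3 3'UTR in osteoblasts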
Protein Wnt-3a = Protein Wnt-3a (Mus musculus, UniProt P27467); experiment: antagonism of Wnt3a pathway luciferase reporter – Wnt-LIGHT cells, luminescence, selectivity assay for Gli-SUFU antagonist project, dose response (AID 651570); format: functional; conditions: read-out: IC50_Mean;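 note: Wnt-LIGHT reporter cells stimulated with conditioned medium from Wnt3a-producing cells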
Protein Wnt-3a, sequence (P27467 whole entry): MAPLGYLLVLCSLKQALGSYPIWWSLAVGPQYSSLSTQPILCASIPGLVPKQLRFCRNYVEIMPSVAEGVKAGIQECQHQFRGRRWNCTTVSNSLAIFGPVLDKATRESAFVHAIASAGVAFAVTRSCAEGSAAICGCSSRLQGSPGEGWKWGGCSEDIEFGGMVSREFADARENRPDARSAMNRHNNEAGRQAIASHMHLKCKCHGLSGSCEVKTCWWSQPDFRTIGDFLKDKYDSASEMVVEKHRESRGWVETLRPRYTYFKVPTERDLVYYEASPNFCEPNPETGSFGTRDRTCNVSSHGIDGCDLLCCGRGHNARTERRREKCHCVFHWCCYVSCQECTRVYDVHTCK

[5] = HEK-293T cell viability reduction – luminescence, B-cell screen hits, cytotoxicity control for BCR NF-kB inhibitor project, dose response (AID 489021); format: functional, cell-based;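 note: HEK-293T cells carrying an NF-kB luciferase reporter; cells exposed to compound for about 14 hours before viability readout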
[6] = molecular target: T2, Rac GTPase-activating protein 1 (Homo sapiens, UniProt Q9H0H5); experiment: blockers of MgcRacGAP-driven Rac1 GTP hydrolysis – biochemical, ADP Hunter fluorescence, primary and confirmatory, confirmation (AID 624330); format: functional
T2 sequence (Q9H0H5 whole entry): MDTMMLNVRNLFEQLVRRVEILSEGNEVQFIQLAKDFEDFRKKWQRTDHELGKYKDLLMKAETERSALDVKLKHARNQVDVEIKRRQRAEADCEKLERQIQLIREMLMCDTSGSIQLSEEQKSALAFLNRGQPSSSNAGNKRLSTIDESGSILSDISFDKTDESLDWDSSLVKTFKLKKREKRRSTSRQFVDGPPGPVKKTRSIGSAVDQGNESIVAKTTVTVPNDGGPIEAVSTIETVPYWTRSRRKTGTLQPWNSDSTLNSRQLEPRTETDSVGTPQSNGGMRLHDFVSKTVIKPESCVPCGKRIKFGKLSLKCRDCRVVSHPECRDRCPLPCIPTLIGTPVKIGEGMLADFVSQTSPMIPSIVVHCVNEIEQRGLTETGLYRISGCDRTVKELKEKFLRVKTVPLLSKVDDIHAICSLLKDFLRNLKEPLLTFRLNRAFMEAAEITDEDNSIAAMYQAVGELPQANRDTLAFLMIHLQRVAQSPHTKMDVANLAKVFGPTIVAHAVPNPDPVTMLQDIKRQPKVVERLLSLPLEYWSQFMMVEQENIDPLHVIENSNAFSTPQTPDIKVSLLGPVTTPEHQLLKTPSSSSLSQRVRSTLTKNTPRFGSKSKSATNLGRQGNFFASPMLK

[7] = molecular target: Eukaryotic translation initiation factor 4E (Mus musculus, UniProt P63073); experiment: blockers of eIF4G binding by eIF4E – biochemical, TR-FRET, dose response (AID 855); format: functional;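 note: potency for disrupting eIF4E binding to eIF4GI seen as loss of FRET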
Eukaryotic translation initiation factor 4E, sequence (P63073 whole entry): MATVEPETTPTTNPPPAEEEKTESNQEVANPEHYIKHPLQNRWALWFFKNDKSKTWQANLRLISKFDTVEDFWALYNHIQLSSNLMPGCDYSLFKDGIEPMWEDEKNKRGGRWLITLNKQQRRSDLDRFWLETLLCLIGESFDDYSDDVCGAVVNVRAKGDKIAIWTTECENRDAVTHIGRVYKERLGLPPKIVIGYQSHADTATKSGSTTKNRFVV

Leucine aminopeptidase = molecular target: T3, Leucine aminopeptidase (Plasmodium falciparum 3D7, UniProt Q8IL11); experiment: P. falciparum M17LAP inhibitors, primary screen, biochemical, fluorogenic H-Leu-NHMec substrate, 1536-well (AID 1619); format: functional
T3 sequence (Q8IL11 whole entry): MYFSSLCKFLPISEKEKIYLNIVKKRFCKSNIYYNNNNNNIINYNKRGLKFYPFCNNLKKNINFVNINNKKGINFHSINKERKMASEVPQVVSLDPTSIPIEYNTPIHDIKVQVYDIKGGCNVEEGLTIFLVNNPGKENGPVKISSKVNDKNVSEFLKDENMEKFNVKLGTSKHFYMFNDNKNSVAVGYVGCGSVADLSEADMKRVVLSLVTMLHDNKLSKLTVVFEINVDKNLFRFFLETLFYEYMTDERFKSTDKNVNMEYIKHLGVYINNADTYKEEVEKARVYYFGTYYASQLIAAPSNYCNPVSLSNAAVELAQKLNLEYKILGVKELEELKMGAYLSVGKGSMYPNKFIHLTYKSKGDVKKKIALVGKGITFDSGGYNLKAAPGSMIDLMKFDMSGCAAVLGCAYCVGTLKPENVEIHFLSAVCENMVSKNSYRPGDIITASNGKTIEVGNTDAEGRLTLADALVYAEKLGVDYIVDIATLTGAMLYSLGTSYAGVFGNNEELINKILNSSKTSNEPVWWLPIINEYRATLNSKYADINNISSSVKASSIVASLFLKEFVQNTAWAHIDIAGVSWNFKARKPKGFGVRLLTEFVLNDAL

H4 = experiment: Luminescence Cell-Based Dose Response HTS to Identify Activators of 5'UTR Stem-Loop Driven Prion Protein mRNA Translation in H4 Neuroglioblastoma Cells. [Related pubchem assays: 1829 (Project Summary), 1814 (Primary HTS)]; format: functional; conditions: Homo sapiens
[8] = Luminescence Cell-Based Dose Confirmation HTS to Identify Activators of 5'UTR Stem-Loop Driven Alpha-Synuclein mRNA Translation in H4 Neuroglioblastoma Cells. [Related pubchem assays: 1829 (Project Summary), 1814 (Primary HTS)]; format: functional
[9] = Luminescence Cell-Based Dose Response HTS to Identify Activators of Luciferase Translation or Activity in H4 […] Cells. [Related pubchem assays: 1829 (Project Summary), 1814 (Primary HTS)]; format: functional
[10] = molecular target: T4, Heat shock factor protein 1 (Mus musculus, UniProt P38532); experiment: enhancement of HSF1-driven luciferase signal – cell-based, NIH3T3, luminescence, dose retest, confirmation (AID 435004); format: functional;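 note: stress induced by proteasome inhibitor MG132 added 30 min after compound; luciferase reporter driven by HSF1 response element in NIH3T3 cells; actives raise luminescence as potentiators of the MG132 stress response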
T4 sequence (P38532 whole entry): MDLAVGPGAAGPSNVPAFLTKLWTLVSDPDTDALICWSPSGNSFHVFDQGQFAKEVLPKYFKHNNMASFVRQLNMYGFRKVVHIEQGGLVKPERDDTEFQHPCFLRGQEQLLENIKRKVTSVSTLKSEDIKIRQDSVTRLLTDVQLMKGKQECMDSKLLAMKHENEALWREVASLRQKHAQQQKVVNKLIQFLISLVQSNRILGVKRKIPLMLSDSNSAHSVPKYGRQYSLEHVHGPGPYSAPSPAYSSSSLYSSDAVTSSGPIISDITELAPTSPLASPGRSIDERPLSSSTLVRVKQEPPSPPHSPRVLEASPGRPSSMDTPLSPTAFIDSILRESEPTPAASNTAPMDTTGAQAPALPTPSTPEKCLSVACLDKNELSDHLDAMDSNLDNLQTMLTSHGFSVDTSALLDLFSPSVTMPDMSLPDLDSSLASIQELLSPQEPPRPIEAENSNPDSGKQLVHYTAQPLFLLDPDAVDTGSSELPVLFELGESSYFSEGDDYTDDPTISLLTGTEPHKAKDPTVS

Question: With `CCC(=O)N1NC(=C2C(=O)N(C)C(=O)N(C)C2=O)CC1c1ccccc1` (stereo not drawn) as the molecule, how does the IC50 (Aminopeptidase N) read?
Answer: 41.9 µM (active)

Question: What about the EC50 (Streptococcus) of the same molecule?
Answer: 8.9 µM (active)

Question: What about the EC50 [1] of the same molecule?
Answer: 4.93 µM (active)

Question: Which results are given for `CC1CN(S(=O)(=O)c2ccc(C(=O)Nc3nc(-c4cc5ccccc5o4)cs3)cc2)CC(C)O1` (stereo not drawn)?
Answer: AC50 [2]: 2.04 µM (active); AC50 [3]: 1.02 µM (active); AC50 [4]: < 0.26 µM (active); IC50 (Protein Wnt-3a): 1.28 µM (active); IC50 [5]: > 80 µM (inactive)

Question: For `Cc1cccc(Nc2nnc(S)s2)c1C`, which IC50 [6] is on record?
Answer: 67.2 µM (active)

Question: And the IC50 [7]?
Answer: > 64 µM (inactive)

Question: What about the IC50 (Leucine aminopeptidase) of the same molecule?
Answer: 9.62 µM (active)

Question: Which EC50 (H4) does the source give for `N#Cc1nc(/C=C/c2ccccc2)oc1NCCCN1CCOCC1` here?
Answer: 38 µM (active)

Question: And the IC50 (Aminopeptidase N)?
Answer: 39.2 µM (active)

Question: And the EC50 [8]?
Answer: 22.1 µM (active)

Question: And the EC50 [9]?
Answer: 7.23 µM (active)

Question: For `Cc1c(CCC(=O)N2CCC(C(=O)O)(c3ccccc3)CC2)c(=O)oc2cc3oc4c(c3cc12)CCCC4`, which IC50 [5] is on record?
Answer: > 80 µM (inactive)

Question: Which EC50 [10] does the source give for `Cc1ccc(O)c(NC(=O)COc2cc(C)ccc2C)c1` here?
Answer: > 260 µM (inactive)

Question: What about the IC50 [5] of the same molecule?
Answer: > 80 µM (inactive)

From ChEMBL document CHEMBL1201862, “PubChem BioAssay data set” (2004)
